34 molecules from PubChem BioAssay AID588529 (Broad Institute, 2011) can be followed below.

The experiment deals with Candida albicans CaCi-2 growth, Alamar Blue fluorescence, 48 h. Put plainly: single-agent growth inhibition of Candida albicans, dose response, CaCi-2 isolate, Alamar Blue, cherry-pick (AID 588529).
In general, AC50 refers to the concentration giving half of the maximal activity seen. As for `O=Cc1ccc(O)c2ncccc12`, the AC50 is 3.85 µM.
For `O=C(N/N=C/c1c(O)ccc2ccccc12)c1cccc(C(F)(F)F)c1` the value was 1.45 µM.
For `CCOC(=O)N1C(=O)C2(CCCCC2)N(c2ccc(C)cc2)C1=S` the value was 0.102 µM; for `Oc1c(CN2CCN(c3ccc(F)cc3)CC2)cc(Cl)c2cccnc12`, 3.73 µM; for `Oc1ccc(N=Nc2ccc3c(c2)OCCO3)c2cccnc12`, 3.55 µM.
For `Cc1ccc(C(=O)c2coc3c2C(=O)C(=O)c2ccccc2-3)cc1` the value was 9.38 µM.
`C(C#CCCCCCCCCC[n+]1ccccc1)#CCCCCCCCCC[n+]1ccccc1`: the concentration at half-maximal activity (AC50) was 16.2 µM.
`CCCCC(=O)NC(c1ccc(Cl)cc1)c1ccc2cccnc2c1O` (centres undefined): the AC50 is 5.11 µM.
For `COc1cccc(N=Nc2ccc(O)c3ncccc23)c1` the value was 0.39 µM; for `Oc1c(C(Nc2nc3ccccc3s2)c2ccco2)ccc2cccnc12` (centres undefined), 3.26 µM; for `Oc1ccc(N=Nc2ccc3c(c2)OCCO3)c2ncccc12`, 2.59 µM.
For `O=[N+]([O-])c1cc(CN2CCN(c3ccccc3)CC2)c(O)c2ncccc12` the value was 5.39 µM; for `O=C(Oc1c(Cl)cc(Cl)c2cccnc12)c1ccco1`, 0.812 µM; for `O=C(Oc1c(Cl)cc(Cl)c2cccnc12)c1cccs1`, 1.49 µM.
The same measure for `CCCCC(=O)NC(c1ccco1)c1cc(Cl)c2cccnc2c1O` (centres undefined): 6.22 µM.
Consider `CCCCC(=O)NC(c1ccc(N(CC)CC)cc1)c1ccc2cccnc2c1O` (centres undefined), for which the AC50 is 3.74 µM.
The same measure for `Oc1c(CN2CCN(c3ccccc3)CC2)cc(Br)c2cccnc12`: 2.38 µM.
Take `COc1cccc(/C=N/Nc2ncnc3scc(-c4ccccc4)c23)c1O`: the AC50 was 5.52 µM.
Take `C/C(=N\NC(=O)c1cc2ccccc2cc1O)c1ccccn1`: the AC50 is 5 µM.
The same measure for `O=c1ccc(N=Nc2ccccc2)ccc1O`: 4.76 µM; for `CCOc1ccc(N=Nc2ccc(O)c3ncccc23)cc1`: 1.4 µM; for `CN1CCN(C(c2ccc(C(F)(F)F)cc2)c2ccc3cccnc3c2O)CC1` (centres undefined): 5.05 µM.
The same measure for `CCN(CC)S(=O)(=O)c1cc(OC)ccc1N=Nc1ccc(O)c2ncccc12`: 10.6 µM; for `CCCCCCC[n+]1ccc(-c2cc[n+](CCCCCCC)cc2)cc1`: 3.76 µM.
On to `COc1cccc(N=Nc2ccc3cccnc3c2O)c1`, for which the AC50 is 1.52 µM.
Turning to `O=[N+]([O-])c1ccc(O)c(/C=N/Nc2ccc(Cl)nn2)c1`, the AC50 was 5.11 µM.
The same measure for `Oc1c(C(Nc2nccs2)c2ccc(C(F)(F)F)cc2)ccc2cccnc12` (centres undefined): 3.73 µM; for `COc1ccc(C)cc1N=Nc1ccc(O)c2ncccc12`: 1.71 µM; for `Oc1c(C(c2ccc(Cl)cc2)N2CCCC2)cc(Cl)c2cccnc12` (centres undefined): 1.51 µM.
The same measure for `O=Nc1c(-c2cccc([N+](=O)[O-])c2)nc2ncccn12`: 5.11 µM.
Turning to `C=CCNC(=S)N/N=C(\C)c1ccccn1`, the AC50 is 13.8 µM.
Consider `CN1CCN(C(c2ccc(C(F)(F)F)cc2)c2cc(Cl)c3cccnc3c2O)CC1` (centres undefined), for which the AC50 was 2.71 µM.
For `Cc1cc(NC(c2ccc(Cl)cc2)c2ccc3cccnc3c2O)no1` (centres undefined) the value was 4.71 µM.
On to `O=C(N/N=C/c1cc2c3c(c1O)CCCN3CCC2)c1ccccc1O`, for which the AC50 was 1.75 µM.
